# Test results taken from ChEMBL document CHEMBL1201862, “PubChem BioAssay data set” (2004).
#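 Method: 48-hour compound exposure of cells in 96-well plates, five concentrations, linear interpolation of endpoints. Here, GI50 denotes the concentration required for 50% inhibition of growth.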 Activity calls are given as the source filed them. Cut-off read from the data, not from the text of the source: active = GI50 up to about 1.1 µM and inactive = higher.
# Experiments:
# Assay in all cases: NCI anticancer screen, dose series, 48 h
# UACC-62 = tested on: UACC-62
# A498 = tested on: A498
# UACC-257 = tested on: UACC-257
# HCC 2998 = tested on: HCC 2998
# NCI-H23 = tested on: NCI-H23
# RXF 393 = tested on: RXF 393
# NCI-H460 = tested on: NCI-H460
# SNB-19 = tested on: SNB-19
# KM12 = tested on: KM12
# COLO 205 = tested on: COLO 205
# MOLT-4 = tested on: MOLT-4
# SF-295 = tested on: SF-295
# IGROV-1 = tested on: IGROV-1
# HCT-116 = tested on: HCT-116
# HOP-62 = tested on: HOP-62
# SK-MEL-28 = tested on: SK-MEL-28
# M19-MEL = tested on: M19-MEL
# DMS-114 = tested on: DMS-114
# K562 = tested on: K562
# OVCAR-3 = tested on: OVCAR-3
# CCRF-CEM = tested on: CCRF-CEM
# HOP-92 = tested on: HOP-92
# SF-539 = tested on: SF-539
# ACHN = tested on: ACHN
# HT-29 = tested on: HT-29
# RPMI-8226 = tested on: RPMI-8226
# UO-31 = tested on: UO-31
# OVCAR-4 = tested on: OVCAR-4
# LXFL 529 = tested on: LXFL 529
# SF-268 = tested on: SF-268
# SNB-78 = tested on: SNB-78
# SNB-75 = tested on: SNB-75
# SR = tested on: SR
# SK-MEL-2 = tested on: SK-MEL-2
# SK-OV-3 = tested on: SK-OV-3
# M14 = tested on: M14
# NCI-H522 = tested on: NCI-H522
# BT-549 = tested on: BT-549
# TK-10 = tested on: TK-10
# HCT-15 = tested on: HCT-15
# PC-3 = tested on: PC-3
# HL-60 = tested on: HL-60
# MDA-MB-435 = tested on: MDA-MB-435
# Malme-3M = tested on: Malme-3M
# SK-MEL-5 = tested on: SK-MEL-5
# Hs-578T = tested on: Hs-578T
# U-251 = tested on: U-251
# EKVX = tested on: EKVX
# LOX IMVI = tested on: LOX IMVI
# MDA-MB-231 = tested on: MDA-MB-231
# NCI-H226 = tested on: NCI-H226
# DU-145 = tested on: DU-145
# T47D = tested on: T47D
# OVCAR-5 = tested on: OVCAR-5
# MDA-N = tested on: MDA-N
# SW-620 = tested on: SW-620
# MCF7 = tested on: MCF7
# CAKI-1 = tested on: CAKI-1
# NCI/ADR-RES = tested on: NCI/ADR-RES
# SN12C = tested on: SN12C
# OVCAR-8 = tested on: OVCAR-8
# A549 = tested on: A549
# 786-0 = tested on: 786-0
smiles,measurement,setting,value
COc1cc2ccc1NC(=O)N1CCN(CC1)C(=O)Nc1ccc(cc1OC)-c1ccc(c(OC)c1)NC(=O)N1CCN(CC1)C(=O)Nc1ccc-2cc1OC,GI50,UACC-62,> 100 µM (inactive)
same,GI50,A498,> 100 µM (inactive)
same,GI50,UACC-257,> 100 µM (inactive)
same,GI50,HCC 2998,> 100 µM (inactive)
same,GI50,NCI-H23,> 100 µM (inactive)
same,GI50,RXF 393,> 100 µM (inactive)
same,GI50,NCI-H460,> 100 µM (inactive)
same,GI50,SNB-19,> 100 µM (inactive)
same,GI50,KM12,> 100 µM (inactive)
same,GI50,COLO 205,> 100 µM (inactive)
same,GI50,MOLT-4,> 100 µM (inactive)
same,GI50,SF-295,> 100 µM (inactive)
same,GI50,IGROV-1,> 100 µM (inactive)
same,GI50,HCT-116,> 100 µM (inactive)
same,GI50,HOP-62,> 100 µM (inactive)
same,GI50,SK-MEL-28,> 100 µM (inactive)
same,GI50,M19-MEL,> 100 µM (inactive)
same,GI50,DMS-114,> 100 µM (inactive)
same,GI50,K562,> 100 µM (inactive)
same,GI50,OVCAR-3,> 100 µM (inactive)
same,GI50,CCRF-CEM,> 100 µM (inactive)
same,GI50,HOP-92,> 100 µM (inactive)
same,GI50,SF-539,> 100 µM (inactive)
same,GI50,ACHN,> 100 µM (inactive)
same,GI50,HT-29,> 100 µM (inactive)
same,GI50,RPMI-8226,> 100 µM (inactive)
same,GI50,UO-31,> 100 µM (inactive)
same,GI50,OVCAR-4,> 100 µM (inactive)
same,GI50,LXFL 529,> 100 µM (inactive)
same,GI50,SF-268,> 100 µM (inactive)
same,GI50,SNB-78,> 100 µM (inactive)
same,GI50,SNB-75,> 100 µM (inactive)
same,GI50,SR,> 100 µM (inactive)
same,GI50,SK-MEL-2,> 100 µM (inactive)
same,GI50,SK-OV-3,> 100 µM (inactive)
same,GI50,M14,> 100 µM (inactive)
same,GI50,NCI-H522,> 100 µM (inactive)
CC1(C)C(=O)c2ccccc2OC1N1CCN(C2Oc3ccccc3C(=O)C2(C)C)CC1 (stereo not drawn),GI50,UACC-62,82.6 µM (inactive)
same,GI50,A498,24.5 µM (inactive)
same,GI50,BT-549,> 100 µM (inactive)
same,GI50,HCC 2998,> 100 µM (inactive)
same,GI50,NCI-H23,> 100 µM (inactive)
same,GI50,TK-10,> 100 µM (inactive)
same,GI50,RXF 393,48.1 µM (inactive)
same,GI50,HCT-15,> 100 µM
same,GI50,PC-3,> 100 µM (inactive)
same,GI50,NCI-H460,> 100 µM (inactive)
same,GI50,HL-60,> 100 µM (inactive)
same,GI50,SNB-19,> 100 µM (inactive)
same,GI50,KM12,> 100 µM (inactive)
same,GI50,COLO 205,> 100 µM (inactive)
same,GI50,MOLT-4,> 100 µM (inactive)
same,GI50,MDA-MB-435,> 100 µM (inactive)
same,GI50,IGROV-1,> 100 µM (inactive)
same,GI50,HCT-116,82.4 µM (inactive)
same,GI50,HOP-62,> 100 µM (inactive)
same,GI50,Malme-3M,30.3 µM (inactive)
same,GI50,SK-MEL-5,> 100 µM (inactive)
same,GI50,SK-MEL-28,> 100 µM (inactive)
same,GI50,Hs-578T,61.1 µM (inactive)
same,GI50,U-251,> 100 µM (inactive)
same,GI50,EKVX,> 100 µM (inactive)
same,GI50,LOX IMVI,> 100 µM (inactive)
same,GI50,MDA-MB-231,94.6 µM (inactive)
same,GI50,NCI-H226,> 100 µM (inactive)
same,GI50,DU-145,> 100 µM (inactive)
same,GI50,T47D,83.4 µM (inactive)
same,GI50,K562,> 100 µM (inactive)
same,GI50,OVCAR-5,> 100 µM (inactive)
same,GI50,OVCAR-3,> 100 µM (inactive)
same,GI50,CCRF-CEM,> 100 µM (inactive)
same,GI50,HOP-92,> 100 µM (inactive)
same,GI50,ACHN,> 100 µM (inactive)
same,GI50,HT-29,> 100 µM (inactive)
same,GI50,RPMI-8226,> 100 µM (inactive)
same,GI50,MDA-N,> 100 µM (inactive)
same,GI50,UO-31,> 100 µM (inactive)
same,GI50,OVCAR-4,> 100 µM (inactive)
same,GI50,SF-268,> 100 µM (inactive)
same,GI50,SW-620,> 100 µM (inactive)
same,GI50,MCF7,> 100 µM (inactive)
same,GI50,SNB-75,28 µM (inactive)
same,GI50,CAKI-1,> 100 µM (inactive)
same,GI50,SR,> 100 µM (inactive)
same,GI50,NCI/ADR-RES,> 100 µM (inactive)
same,GI50,SK-OV-3,> 100 µM (inactive)
same,GI50,SN12C,> 100 µM (inactive)
same,GI50,M14,> 100 µM (inactive)
same,GI50,NCI-H522,> 100 µM (inactive)
Cc1cc(N)c2ccccc2[n+]1CCCCCCCCCC[n+]1c(C)cc(N)c2ccccc21 [DEQUALINIUM CHLORIDE],GI50,UACC-62,1.82 µM (inactive)
same,GI50,A498,5.19 µM (inactive)
same,GI50,OVCAR-8,1.9 µM (inactive)
same,GI50,UACC-257,2.91 µM (inactive)
same,GI50,BT-549,1 µM (active)
same,GI50,HCC 2998,0.904 µM (active)
same,GI50,NCI-H23,0.41 µM (active)
same,GI50,TK-10,4.09 µM (inactive)
same,GI50,RXF 393,10.4 µM (inactive)
same,GI50,HCT-15,4.31 µM
same,GI50,PC-3,1.07 µM (active)
same,GI50,NCI-H460,0.54 µM (active)
same,GI50,HL-60,0.533 µM (active)
same,GI50,SNB-19,0.783 µM (active)
same,GI50,KM12,0.69 µM (active)
same,GI50,COLO 205,1.33 µM (inactive)
same,GI50,MOLT-4,0.964 µM (active)
same,GI50,MDA-MB-435,0.541 µM (active)
same,GI50,SF-295,1.28 µM (inactive)
same,GI50,IGROV-1,1.72 µM (inactive)
same,GI50,HCT-116,1.31 µM (inactive)
same,GI50,HOP-62,1.87 µM (inactive)
same,GI50,Malme-3M,3.05 µM (inactive)
same,GI50,SK-MEL-5,0.528 µM (active)
same,GI50,SK-MEL-28,0.879 µM (active)
same,GI50,Hs-578T,1.96 µM (inactive)
same,GI50,U-251,0.258 µM (active)
same,GI50,EKVX,1.82 µM (inactive)
same,GI50,LOX IMVI,1.11 µM (active)
same,GI50,MDA-MB-231,1.82 µM (inactive)
same,GI50,NCI-H226,3.37 µM (inactive)
same,GI50,DU-145,2.74 µM (inactive)
same,GI50,A549,887 nM (active)
same,GI50,T47D,0.948 µM (active)
same,GI50,K562,0.379 µM (active)
same,GI50,OVCAR-5,2.34 µM (inactive)
same,GI50,OVCAR-3,2.27 µM (inactive)
same,GI50,CCRF-CEM,2.11 µM (inactive)
same,GI50,HOP-92,3.62 µM (inactive)
same,GI50,SF-539,1.83 µM (inactive)
same,GI50,ACHN,1.11 µM (active)
same,GI50,HT-29,1 µM (active)
same,GI50,RPMI-8226,0.375 µM (active)
same,GI50,MDA-N,1.33 µM (inactive)
same,GI50,UO-31,4.43 µM (inactive)
same,GI50,OVCAR-4,2.43 µM (inactive)
same,GI50,SF-268,1.39 µM (inactive)
same,GI50,SW-620,2.22 µM (inactive)
same,GI50,MCF7,0.423 µM (active)
same,GI50,SNB-75,0.986 µM (active)
same,GI50,786-0,2.69 µM (inactive)
same,GI50,CAKI-1,7.06 µM (inactive)
same,GI50,SR,0.472 µM (active)
same,GI50,NCI/ADR-RES,10.5 µM (inactive)
same,GI50,SK-MEL-2,1.89 µM (inactive)
same,GI50,SK-OV-3,2.39 µM (inactive)
same,GI50,SN12C,1.45 µM (inactive)
same,GI50,M14,2.59 µM (inactive)
same,GI50,NCI-H522,0.752 µM (active)
